Data published in patent US11963975B2, “Therapeutic targets for facioscapulohumeral muscular dystrophy” (University of Massachusetts, priority 2016, dated 2024).

Experiments:
[1] = test system: primary FSHD muscle cells (09Abic); experiment: JQ1 treatment time course, gene expression; assay type: cell-based, human
Text: (§1) DUX4 expression is induced during myogenic differentiation, and blocking or slowing down this process, as the case with JQ1, give the appearance of inhibiting DUX4 expression, when in fact it is merely altering the kinetics of myoginc differentiation. Importantly, these genes are misregulated by JQ1 in both FSHD and healthy human skeletal muscle myoblasts (HSMM) (FIG. 17). Therefore, JQ1 is an example of a non-specific small molecule and not appropriate for use as an FSHD therapeutic.

[2] = test system: healthy human skeletal muscle myoblasts (HSMM); experiment: JQ1 treatment of healthy myoblasts, myogenic gene expression; assay type: cell-based; details: FIG. 17
Text: as §1

Cc1sc2c(c1C)C(c1ccc(Cl)cc1)=N[C@@H](CC(=O)OC(C)(C)C)c1nnc(C)n1-2 [JQ1]
DUX4 expression (in words) ([1]; 09Abic): appears to inhibit | expression of downstream genes TRIM43 and ZSCAN4 (in words) ([1]; 09Abic): appears to inhibit | expression of myogenic regulatory genes myogenin (Myog), myoD, myosin heavy chain (MyHC), and myostatin (Myost) (in words) ([1]; time course of treatment, FIG. 16): inhibiting the expression | myogenic genes (Myog, myoD, MyHC) (in words) [2]: misregulated
